Measurements published in the OPERA property sets (Mansouri et al. 2018).

Settings: for log10 BCF / log10 biotransformation half-life (days): fish

Compound | melting point | boiling point | other results
CC(C)(C)c1cc(-n2nc3ccc(Cl)cc3n2)c(O)c(C(C)(C)C)c1 | – | – | ready biodegradability: not readily biodegradable; log10 BCF: 3.57; log10 biotransformation half-life (days): 0.72
O=c1ccn([C@@H]2O[C@H](CO)[C@@H](O)[C@@H]2O)c(=O)[nH]1 | 165 °C | – | –
O=[N+]([O-])c1cccc([N+](=O)[O-])c1Cl | 88 °C | 315 °C | –
CCOC(=O)C(Br)CC (configuration not stated) | – | 177 °C | –
Cc1cccc(C(=O)O)c1O | 166 °C | – | ready biodegradability: not readily biodegradable
NC(=O)c1ccccc1 | 129 °C | 290 °C | log10 Henry constant (atm·m³/mol): -9.61; log10 Koc (L/kg): 1.46
N#Cc1ccc2ccccc2c1 | 66 °C | 306 °C | –
CC1=NCCS1 | -101 °C | 145 °C | –
CCCCc1nc(Cl)c(CO)n1Cc1ccc(-c2ccccc2-c2nnn[nH]2)cc1 | 184 °C | – | –
CC(=O)Oc1cccc2cc3cccc(OC(C)=O)c3c(OC(C)=O)c12 | – | – | ready biodegradability: not readily biodegradable
COC(=O)CC(C)=O | – | 172 °C | log10 vapour pressure (mmHg): -0.0496; ready biodegradability: readily biodegradable
CCOC(=O)c1ccc(OC)cc1 | 7.5 °C | 270 °C | –
CC#CC(=O)OCC | – | 163 °C | –
CCCC(Cn1cncn1)c1ccc(Cl)cc1Cl (configuration not stated) | 58.5 °C | – | log10 vapour pressure (mmHg): -5.56; log10 biotransformation half-life (days): 1.19
C=CCOC | – | 44 °C | –
Clc1ccc(C(c2ccc(Cl)cc2)C(Cl)(Cl)Cl)cc1 | 108 °C | – | log10 Henry constant (atm·m³/mol): -5.08; log10 Koa: 9.82; log10 Koc (L/kg): 5.31; log10 vapour pressure (mmHg): -6.8; ready biodegradability: not readily biodegradable; log10 BCF: 4.29; log10 biotransformation half-life (days): 1.93
CC(CCC(C)C)=NO | – | 196 °C | –
CCc1ccc(Cc2ccccc2)cc1 | -24 °C | 297 °C | –
CC(=O)C1=CCCCC1 | 73 °C | 202 °C | –
Clc1ccc(Oc2cc(Cl)ccc2Cl)cc1 | – | – | log10 vapour pressure (mmHg): -3.76
Brc1ccccn1 | – | 195 °C | log10 vapour pressure (mmHg): -0.114
CC(Br)C(C)(C)Br (configuration not stated) | 7 °C | – | –
c1ccc(-c2ccc(-c3ccc(-c4ccccc4)cc3)cc2)cc1 | 320 °C | – | –
CC(=O)c1c(O)c(C)c(O)c2c1OC1=CC(=O)C(C(C)=O)C(=O)C12C (configuration not stated) | 204 °C | – | –

Compound | melting point | boiling point | other results
CC(=O)O.CC(=O)O.N=C(NCCCCCCNC(=N)NC(=N)Nc1ccc(Cl)cc1)NC(=N)Nc1ccc(Cl)cc1 | 154 °C | – | –
CCCCOC(=O)CC | -89 °C | 147 °C | log10 vapour pressure (mmHg): 0.645
CCC(C)[N+](=O)[O-] (configuration not stated) | – | 140 °C | log10 vapour pressure (mmHg): 0.891
c1ccc(Cc2ccccn2)cc1 | 12.5 °C | 277 °C | –
Cc1ccncc1C | -11 °C | 179 °C | log10 Henry constant (atm·m³/mol): -5.43; log10 vapour pressure (mmHg): 0.092
COc1ccc([C@@H]2CC(=O)c3c(O)cc(O[C@@H]4O[C@H](CO[C@@H]5O[C@@H](C)[C@H](O)[C@@H](O)[C@H]5O)[C@@H](O)[C@H](O)[C@H]4O)cc3O2)cc1O | 262 °C | – | –
O=C(O)CONC(=O)c1ccccc1 | 140 °C | – | –
c1ccc2c(c1)ccc1cccnc12 | 52 °C | 339 °C | log10 vapour pressure (mmHg): -3.66
CC(C)C(Nc1ccc(C(F)(F)F)cc1Cl)C(=O)OC(C#N)c1cccc(Oc2ccccc2)c1 (configuration not stated) | – | – | log10 Koc (L/kg): 5.71
CCCCNC(=O)OCC(C)(CCC)COC(N)=O (configuration not stated) | 50 °C | – | –
C[C@]12CC[C@H](O)C[C@H]1CC[C@@H]1[C@@H]2CC[C@]2(C)[C@@H](C3=CC(=O)OC3)[C@@H](O)C[C@]12O | 234 °C | – | –
C=C(C)C=CC | 75.5 °C | – | –
C#CCO | -51.8 °C | 114 °C | log10 vapour pressure (mmHg): 1.19; ready biodegradability: readily biodegradable
CN(C)c1ccccc1C(=O)O | 72 °C | – | –
c1ccc2oncc2c1 | – | 215 °C | –
CCCCOCCOC(=O)C(C)Oc1ccc(Cl)cc1Cl (configuration not stated) | – | – | log10 Koc (L/kg): 3
CCOC(OCC)C(Cl)Cl | – | 184 °C | –
C[C@H]1CC[C@@H]2[C@@H](C)[C@H]3[C@H](C[C@H]4[C@@H]5CC=C6C[C@@H](O)CC[C@]6(C)[C@H]5CC[C@]34C)N2C1 | 218 °C | – | –
FC(Cl)(Cl)I | -107 °C | 90 °C | –
O=C1CSC(=S)N1c1ccccc1 | 194 °C | – | –
c1ccc(-c2cnc(-c3ccccc3)o2)cc1 | 74 °C | 360 °C | –
Clc1ccc(/N=N/c2ccccc2)cc1 | 88 °C | – | log10 vapour pressure (mmHg): -5.7
O=C(O)c1ccccc1C(c1ccc(O)cc1)c1ccc(O)cc1 | 230 °C | – | –
COc1cccc(C(C)=O)c1 | – | 240 °C | –

Compound | melting point | boiling point | other results
CCSCC(C)C | – | 134 °C | –
O=S1OC[C@@H]2[C@H](CO1)[C@]1(Cl)C(Cl)=C(Cl)[C@@]2(Cl)C1(Cl)Cl (some centres not stated) | – | – | log10 Koa: 8.64
C=CCn1c(=O)n(CC=C)c(=O)n(CC=C)c1=O | 20.5 °C | – | ready biodegradability: not readily biodegradable
CCCCCCc1ccc(O)cc1O | 68 °C | 334 °C | –
CCCCOc1ccc(O)cc1 | 65.5 °C | – | –
CCCCCCCCCCCCCCCCCCCCCCC | 47.6 °C | 380 °C | log10 biodegradation half-life (days): 2.16; log10 vapour pressure (mmHg): -4.76; ready biodegradability: readily biodegradable
CCOC(=O)C1(C(=O)OCC)CCCC1 | – | 210 °C | –
O=[N+]([O-])c1cccc(CBr)c1 | 59.3 °C | – | –
C=CC[N+](=O)[O-] | – | 128 °C | –
O=C(O)Cc1cn(-c2ccccc2)nc1-c1ccc(Cl)cc1 | 150 °C | – | –
N#Cc1ccccn1 | 29 °C | 224 °C | –
ClCc1ccccc1Cl | -17 °C | 217 °C | ready biodegradability: not readily biodegradable
Oc1ccccc1Cc1ccccc1 | 21 °C | 312 °C | –
[Na][O]c1c(Cl)c(Cl)c(Cl)c(Cl)c1Cl | – | – | log10 BCF: 2.78
c1ccc(Cn2cncn2)cc1 | 49 °C | – | –
O=S1CCC1 | 31.5 °C | – | –
Clc1cc(Cl)cc(Br)c1 | 83 °C | 232 °C | –
Cc1cccc2ccccc12 | -30.4 °C | 245 °C | log10 Henry constant (atm·m³/mol): -3.29; log10 Koc (L/kg): 3.36; log10 biodegradation half-life (days): 0.962; log10 vapour pressure (mmHg): -1.17; ready biodegradability: not readily biodegradable; log10 BCF: 1.73
CCOC(=O)c1cccc2ccccc12 | – | 310 °C | –
CCCC(C)(O)C(C)(C)C (configuration not stated) | – | 170 °C | –
CC(CC=O)CCCC(C)(C)O (configuration not stated) | – | 241 °C | –
BrCC=Cc1ccccc1 | 34 °C | – | –
CN(CCO)c1nc2c(c(=O)n(C)c(=O)n2C)n1C | 105 °C | – | –
CC(=O)Nc1cccnc1 | 133 °C | 326 °C | –

Compound | melting point | boiling point | other results
CCOP(=O)(SC(C)CC)N1CCSC1=O (configuration not stated) | – | – | log10 Henry constant (atm·m³/mol): -9.76; log10 vapour pressure (mmHg): -5.38
BrCCCOc1ccccc1 | 10.7 °C | – | –
Cc1ccc(C)c([N+](=O)[O-])c1 | -25 °C | 240 °C | –
Cc1cc(O)c2c(O)c3c(O)cccc3cc2c1 | 204 °C | – | –
CCOCCOC(C)(C)C | – | 148 °C | –
COC(=O)c1ccc2cc(C(=O)OC)ccc2c1 | – | – | ready biodegradability: not readily biodegradable
COc1ccccc1N(C)C | – | 210 °C | –
C[C@H]1O[C@@H](n2cc(F)c(=O)[nH]c2=O)[C@H](O)[C@@H]1O | 190 °C | – | –
CCCCCCN1CCCC1=O | 4 °C | – | –
CCN(CC)CC(=O)OCC(=O)[C@@]1(O)CC[C@H]2[C@@H]3CCC4=CC(=O)CC[C@]4(C)[C@H]3[C@@H](O)C[C@@]21C | 162 °C | – | –
CCCCC(CC)COC(=O)/C=C/C(=O)OCC(CC)CCCC (configuration not stated) | -10 °C | 300 °C | –
BrCCCBr | -34.2 °C | 167 °C | log10 Henry constant (atm·m³/mol): -3.05; log10 vapour pressure (mmHg): 0.134; ready biodegradability: not readily biodegradable
CCCCCCN(C)C(=O)COC(=O)c1ccccc1 | 100 °C | – | –
CCC(C)C(C)(C)C(C)C (configuration not stated) | – | 165 °C | –
CC1CCC(C)(C(=O)O)C1(C)C (configuration not stated) | 106 °C | 254 °C | –
C=C(C)C | -140 °C | -6.9 °C | log10 Henry constant (atm·m³/mol): -0.662; log10 vapour pressure (mmHg): 3.36
CCCCCCCCCCCCSCCC(=O)OCC(COC(=O)CCSCCCCCCCCCCCC)(COC(=O)CCSCCCCCCCCCCCC)COC(=O)CCSCCCCCCCCCCCC | – | – | ready biodegradability: not readily biodegradable
Clc1ccc(OCOc2ccc(Cl)cc2)cc1 | 70.5 °C | – | –
O=[N+]([O-])c1ccc(F)cc1O | 36 °C | – | log10 Henry constant (atm·m³/mol): -4.71; log10 vapour pressure (mmHg): -1.64
O=Cc1ccc[nH]1 | 46.5 °C | 218 °C | –
CC(C)(c1cc(Br)c(OCC(Br)CBr)c(Br)c1)c1cc(Br)c(OCC(Br)CBr)c(Br)c1 (configuration not stated) | – | – | ready biodegradability: not readily biodegradable
CC(C)OC(=O)C1(S(=O)(=O)c2ccc([N+](=O)[O-])cc2)CCCCCC1 | 83.5 °C | – | –
COB(OC)OC | -31.6 °C | 68 °C | log10 vapour pressure (mmHg): 2.13
CC1CCCCC1C (configuration not stated) | – | 126 °C | log10 biodegradation half-life (days): 1.26; log10 vapour pressure (mmHg): 1.2

Compound | melting point | boiling point | other results
Brc1ccc(Oc2ccc(Br)c(Br)c2)cc1Br | – | – | log10 BCF: 6.29
N#Cc1c[nH]cc1-c1cccc(Cl)c1Cl | 147 °C | – | log10 vapour pressure (mmHg): -7.08
CCOc1ccc(I)cc1 | 29 °C | 250 °C | –
N#CCCCCC#N | 1 °C | 295 °C | log10 vapour pressure (mmHg): -3.17; ready biodegradability: readily biodegradable
C[C@]12CC[C@H]3C(=CCc4cc(O)ccc43)[C@@H]1CC[C@@H]2O | 174 °C | – | –
C[Si](Cl)(Cl)c1ccccc1 | – | 206 °C | log10 vapour pressure (mmHg): -0.312
C=COC | -122 °C | 5.5 °C | log10 vapour pressure (mmHg): 3.12
CC(C)(Oc1ccccc1)C(=O)O | 98.5 °C | – | –
C#CC(C)(C)NC(=O)c1ccc(Br)cc1 | – | – | log10 Koc (L/kg): 2.01
O=C(O)Cc1ccco1 | 68.5 °C | – | –
CCCOC(=O)C(O)C(O)C(=O)OCCC (configuration not stated) | – | 303 °C | –
CN(C)CCCN1c2ccccc2S(=O)c2ccc(Cl)cc21 (configuration not stated) | 115 °C | – | –
c1ccc(N2CCOCC2)cc1 | 52.5 °C | – | –
O=C(C(F)(F)Cl)C(F)(F)Cl | – | 44.5 °C | –
CS(=O)(=O)c1ccccc1 | 86 °C | – | –
CCCC(C)Cl (configuration not stated) | -80 °C | 99 °C | log10 vapour pressure (mmHg): 1.69
Cc1cc(O)c(C(C)(C)C)cc1C(C)CC(c1cc(C(C)(C)C)c(O)cc1C)c1cc(C(C)(C)C)c(O)cc1C (configuration not stated) | 186 °C | – | –
CCCCC(C(C)=O)C(=O)OCC (configuration not stated) | – | 222 °C | –
CCN(CC)CCCC(C)N (configuration not stated) | – | 201 °C | –
Cc1ccc(-c2nc3ccc(C)cn3c2CC(=O)N(C)C)cc1 | 196 °C | – | –
CCCCOCCOCCOCCO | -30 °C | 278 °C | log10 vapour pressure (mmHg): -2.6
CC1CC=CC1 | -161 °C | 65.7 °C | –
